According to patent US9879023B2, “Therapeutic compounds” (Gilead Sciences, Inc., priority 2011, dated 2018):

system: HIV-IIIb (MT-4 cells); test: Test A: Antiviral Assays in MT4 Cells; assay type: cell-based; details: Human immunodeficiency virus 1, IIIB, MT4, 120 h, MT-4 cells infected with HIV-IIIb (0.004 m.o.i.), 5 days incubation, CellTiter-Glo readout; read-out: EC50
Procedure: Test A: Antiviral Assays in MT4 Cells
For the antiviral assay utilizing MT-4 cells, 0.4 μL of […] test concentration of 3-fold serially diluted compound in DMSO was added to 40 μL of cell growth medium (RPMI 1640, 10% FBS, 1% penicilline/Streptomycine, 1% L-Glutamine, 1% HEPES) in each well of 384-well assay plates (10 concentrations) in quadruplicate.
1 mL aliquots of 2×10e6 MT-4 cells are pre-infected for 1 and 3 hrs respectively, @37° C. with 25 uL (MT4) or of either cell growth medium (mock-infected) or a fresh 1:250 dilution of an HIV-IIIb concentrated ABI stock (0.004 m.o.i. for MT4 cells). Infected and uninfected cells are diluted in cell growth medium and 35 uL of 2000 (for MT4) cells is added to each well of the assay plates.
Assay plates were then incubated in a 37° C. incubator. After 5 days of incubation, 25 μl of 2× concentrated CellTiter-Glo™ Reagent (catalog # G7573, Promega Biosciences, Inc., Madison, Wis.) was added to each well of the assay plate. Cell lysis was carried out by incubating at room temperature for 2-3 min and then chemiluminescence was read using the Envision reader (PerkinElmer). […]

| Compound | EC50 |
| --- | --- |
| Cc1cc2nc(C(=O)O)sc2c(-c2ccc3c4c(ccnc24)CCO3)c1[C@H](OC(C)(C)C)C(=O)O (atropisomer, axis not shown) [Compound 41] | 923 nM |
| Cc1nc2cc(C)c([C@H](OC(C)(C)C)C(=O)O)c(-c3ccc(Cl)cc3)c2s1 [Compound 7, (S)-2-tert-butoxy-2-(7-(4-chlorophenyl)-2,5-dimethylbenzo[d]thiazol-6-yl)acetic acid] | 257 nM |
| CNC(=O)c1nc2cc(C)c([C@H](OC(C)(C)C)C(=O)O)c(-c3ccc4c5c(ccnc35)CCO4)c2s1 (atropisomer, axis not shown) [Compound 97, (S)-2-tert-butoxy-2-((S)-7-(2,3-dihydropyrano[4,3,2-de]quinolin-7-yl)-5-methyl-2-(methylcarbamoyl)benzo[d]thiazol-6-yl)acetic acid] | 1240 nM |
| Cc1cc2ncsc2c(-c2ccc3c4c(ccnc24)CCO3)c1[C@H](OC(C)(C)C)C(=O)O (atropisomer, axis not shown) [Compound 95, (S)-2-tert-butoxy-2-((S)-7-(2,3-dihydropyrano[4,3,2-de]quinolin-7-yl)-5-methylbenzo[d]thiazol-6-yl)acetic acid] | 655 nM |
| Cc1cc2nc(C(F)F)sc2c(-c2ccc3c4c(ccnc24)CCO3)c1[C@H](OC(C)(C)C)C(=O)O (atropisomer, axis not shown) [Compound 92, (S)-2-tert-butoxy-2-((S)-2-(difluoromethyl)-7-(2,3-dihydropyrano[4,3,2-de]quinolin-7-yl)-5-methylbenzo[d]thiazol-6-yl)acetic acid] | 353 nM |
| Cc1cc2ncsc2c(-c2ccc(Cl)cc2)c1[C@H](OC(C)(C)C)C(=O)O [Compound 5L, (S)-2-tert-butoxy-2-(7-(4-chlorophenyl)-5-methylbenzo[d]thiazol-6-yl)acetic acid] | 2950 nM |
| Cc1cc2nc(CC(C)C)sc2c(-c2ccccc2)c1[C@H](OC(C)(C)C)C(=O)O [Compound 8K, (S)-2-tert-butoxy-2-(2-isobutyl-5-methyl-7-phenylbenzo[d]thiazol-6-yl)acetic acid] | 641 nM |
| CCN(C)c1nc2cc(C)c([C@H](OC(C)(C)C)C(=O)O)c(-c3ccc4c5c(ccnc35)CCO4)c2s1 (atropisomer, axis not shown) [Compound 44, (S)-2-tert-butoxy-2-((S)-7-(2,3-dihydropyrano[4,3,2-de]quinolin-7-yl)-2-(ethyl(methyl)amino)-5-methylbenzo[d]thiazol-6-yl)acetic acid] | 18.7 nM |
| COc1ccc(CNC(=O)c2nc3cc(C)c([C@H](OC(C)(C)C)C(=O)O)c(-c4ccc5c6c(ccnc46)CCO5)c3s2)cc1 (atropisomer, axis not shown) [Compound 99, (S)-2-tert-butoxy-2-((S)-7-(2,3-dihydropyrano[4,3,2-de]quinolin-7-yl)-2-(4-methoxybenzylcarbamoyl)-5-methylbenzo[d]thiazol-6-yl)acetic acid] | 560 nM |
| Cc1cc2nc(N(C)Cc3ccccc3)sc2c(-c2ccc3c4c(ccnc24)CCO3)c1[C@H](OC(C)(C)C)C(=O)O [Compound 63, (2S)-2-(2-(benzyl(methyl)amino)-7-(2,3-dihydropyrano[4,3,2-de]quinolin-7-yl)-5-methylbenzo[d]thiazol-6-yl)-2-tert-butoxyacetic acid] | 351 nM |
| Cc1cc2nc(C(=O)NCCc3ccccc3)sc2c(-c2ccc3c4c(ccnc24)CCO3)c1[C@H](OC(C)(C)C)C(=O)O (atropisomer, axis not shown) [Compound 98, (S)-2-tert-butoxy-2-((S)-7-(2,3-dihydropyrano[4,3,2-de]quinolin-7-yl)-5-methyl-2-(phenethylcarbamoyl)benzo[d]thiazol-6-yl)acetic acid] | 2510 nM |
| Cc1cc2nc(OC(C)C)sc2c(-c2ccc3c4c(ccnc24)CCO3)c1[C@H](OC(C)(C)C)C(=O)O (atropisomer, axis not shown) [Compound 70, (S)-2-tert-butoxy-2-((S)-7-(2,3-dihydropyrano[4,3,2-de]quinolin-7-yl)-2-isopropoxy-5-methylbenzo[d]thiazol-6-yl)acetic acid] | 80.8 nM |
| CCN(CC)c1nc2cc(C)c([C@H](OC(C)(C)C)C(=O)O)c(-c3ccc4c5c(ccnc35)CCO4)c2s1 (atropisomer, axis not shown) [Compound 45, (S)-2-tert-butoxy-2-((S)-2-(diethylamino)-7-(2,3-dihydropyrano[4,3,2-de]quinolin-7-yl)-5-methylbenzo[d]thiazol-6-yl)acetic acid] | 67 nM |
| Cc1cc2nc(C(N)=O)sc2c(-c2ccc3c4c(ccnc24)CCO3)c1[C@H](OC(C)(C)C)C(=O)O [Compound 40, (S)-2-tert-butoxy-2-((S)-2-carbamoyl-7-(2,3-dihydropyrano[4,3,2-de]quinolin-7-yl)-5-methylbenzo[d]thiazol-6-yl)acetic acid] | 722 nM |
| Cc1cc2c(sc(=O)n2Cc2ccc(C(F)(F)F)cc2)c(-c2ccc3c4c(ccnc24)CCO3)c1[C@H](OC(C)(C)C)C(=O)O (atropisomer, axis not shown) [Compound 74, (S)-2-tert-butoxy-2-((S)-7-(2,3-dihydropyrano[4,3,2-de]quinolin-7-yl)-5-methyl-2-oxo-3-(4-(trifluoromethyl)benzyl)-2,3-dihydrobenzo[d]thiazol-6-yl)acetic acid] | 650 nM |

same assay, conditions: MT-4 cells infected with HIV-IIIb (0.004 m.o.i.), 5 days incubation, CellTiter-Glo readout; read-out: EC50

| Compound | EC50 |
| --- | --- |
| Cc1cc2nc(C3CC3)sc2c(-c2ccc3c(c2Cl)NCCO3)c1[C@H](OC(C)(C)C)C(=O)O (atropisomer, axis not shown) [Compound 87, (S)-2-tert-butoxy-2-((R)-7-(5-chloro-3,4-dihydro-2H-benzo[b] [1,4]oxazin-6-yl)-2-cyclopropyl-5-methylbenzo[d]thiazol-6-yl)acetic acid] | 1570 nM |
| Cc1cc2nc(N(C)C(C)C)sc2c(-c2ccc3c4c(ccnc24)CCO3)c1[C@H](OC(C)(C)C)C(=O)O (atropisomer, axis not shown) [Compound 46, (S)-2-tert-butoxy-2-((S)-7-(2,3-dihydropyrano[4,3,2-de]quinolin-7-yl)-2-(isopropyl(methyl)amino)-5-methylbenzo[d]thiazol-6-yl)acetic acid] | 16.8 nM |
| Cc1cc2nc(CC(C)C)sc2c(-c2ccc3c4c(ccnc24)CCO3)c1[C@H](OC(C)(C)C)C(=O)O (atropisomer, axis not shown) [Compound 83, (S)-2-tert-butoxy-2-((S)-7-(2,3-dihydropyrano[4,3,2-de]quinolin-7-yl)-2-isobutyl-5-methylbenzo[d]thiazol-6-yl)acetic acid] | 93.2 nM |
| Cc1cc2nc(C3=CCCC3)sc2c(-c2ccc3c4c(ccnc24)CCO3)c1[C@H](OC(C)(C)C)C(=O)O (atropisomer, axis not shown) [Compound 79, (S)-2-tert-butoxy-2-((R)-2-cyclopentenyl-7-(2,3-dihydropyrano[4,3,2-de]quinolin-7-yl)-5-methylbenzo[d]thiazol-6-yl)acetic acid] | 45900 nM |
| Cc1cc2nc(C3CC3)sc2c(-c2ccc3c(c2Cl)NCCO3)c1[C@H](OC(C)(C)C)C(=O)O (atropisomer, axis not shown) [Compound 86, (S)-2-tert-butoxy-2-((S)-7-(5-chloro-3,4-dihydro-2H-benzo[b][1,4]oxazin-6-yl)-2-cyclopropyl-5-methylbenzo[d]thiazol-6-yl)acetic acid] | 61.7 nM |
| Cc1cc2nc(C3=CCCC3)sc2c(-c2ccc3c4c(ccnc24)CCO3)c1[C@H](OC(C)(C)C)C(=O)O (atropisomer, axis not shown) [Compound 78, (S)-2-tert-butoxy-2-((S)-2-cyclopentenyl-7-(2,3-dihydropyrano[4,3,2-de]quinolin-7-yl)-5-methylbenzo[d]thiazol-6-yl)acetic acid] | 726 nM |
| Cc1cc2nc(N(C)CCN(C)C)sc2c(-c2ccc3c4c(ccnc24)CCO3)c1[C@H](OC(C)(C)C)C(=O)O (atropisomer, axis not shown) [Compound 61, (S)-2-tert-butoxy-2-((S)-7-(2,3-dihydropyrano[4,3,2-de]quinolin-7-yl)-2-((2-(dimethylamino)ethyl)(methyl)amino)-5-methylbenzo[d]thiazol-6-yl)acetic acid] | 987 nM |
| Cc1cc2nc(N(C)CC3OCCO3)sc2c(-c2ccc3c4c(ccnc24)CCO3)c1[C@H](OC(C)(C)C)C(=O)O (atropisomer, axis not shown) [Compound 59, (S)-2-((S)-2-(((1,3-dioxolan-2-yl)methyl)(methyl)amino)-7-(2,3-dihydropyrano[4,3,2-de]quinolin-7-yl)-5-methylbenzo[d]thiazol-6-yl)-2-tert-butoxyacetic acid] | 149 nM |
| Cc1cc2nc(N(C)CC(C)C)sc2c(-c2ccc3c4c(ccnc24)CCO3)c1[C@H](OC(C)(C)C)C(=O)O (atropisomer, axis not shown) [Compound 49, (S)-2-tert-butoxy-2-((R)-7-(2,3-dihydropyrano[4,3,2-de]quinolin-7-yl)-2-(isobutyl(methyl)amino)-5-methylbenzo[d]thiazol-6-yl)acetic acid] | 13300 nM |
| Cc1cc2nc(N(C)C(C)C)sc2c(-c2ccc3c4c(ccnc24)CCO3)c1[C@H](OC(C)(C)C)C(=O)O (atropisomer, axis not shown) [Compound 47, (S)-2-tert-butoxy-2-((R)-7-(2,3-dihydropyrano[4,3,2-de]quinolin-7-yl)-2-(isopropyl(methyl)amino)-5-methylbenzo[d]thiazol-6-yl)acetic acid] | 26500 nM |
